The results in this text go back to PubChem BioAssay (NCI).

Among the test systems are SK-MEL-28 melanoma; NCI-H226 lung; UACC-62 melanoma; MDA-MB-435; MCF7 breast; SNB-19 CNS; SK-MEL-2 melanoma; SF-539 CNS; HS 578T breast; HCC-2998 colon.
Common to all, as to test: DTP human tumour cell line panel, 48 h

Each structure is given as a SMILES string.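 Exposure lasted 48 hours, with cells grown in 96-well plates and compounds tested at five concentrations. Abbreviation: GI50, concentration required for 50% inhibition of growth. TGI is the concentration that stops growth completely.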

For orientation: GI50 means the concentration at which growth is held to half of that of the control. The term TGI denotes the concentration at which net growth stops. Lower therefore signals more potent growth arrest. Consider `O=C(Nc1ccc(-n2cc(-c3ccncc3)c(-c3ccc(O)c(Cl)c3)n2)cc1)Nc1ccc(Cl)c(C(F)(F)F)c1`, for which the GI50 in the test on SK-MEL-28 melanoma is 3.64 µM; in the test on NCI-H226 lung it was 21.4 µM; in the test on UACC-62 melanoma it was 3.9 µM; in the test with MDA-MB-435, 2.89 µM; in the test with MCF7 breast, 3.06 µM; in the test on SNB-19 CNS, 5.06 µM. Moreover, the GI50 in the test with SK-MEL-2 melanoma was 1.97 µM; in the test with SF-539 CNS it was 2.58 µM; in the test on HS 578T breast, 2.43 µM; with HCC-2998 colon it was 4.65 µM. Also, the TGI with SK-MEL-28 melanoma is 15 µM; in the test on NCI-H226 lung it was 51.8 µM; in the test on UACC-62 melanoma it was 14.8 µM; with MDA-MB-435, 15.3 µM; in the test on MCF7 breast, 13.4 µM; in the test on SNB-19 CNS, 19 µM. Besides, the TGI was determined as 4.52 µM with SK-MEL-2 melanoma, 12.5 µM in the test on SF-539 CNS, 13 µM with HS 578T breast and 20.1 µM with HCC-2998 colon.
In the case of `C/C(=N\NC(=S)NCCCCNC(=S)N/N=C(\C)c1ccccn1)c1ccccc1`, the TGI is over 100 µM with SK-MEL-28 melanoma; over 23.6 µM with NCI-H226 lung; 7.03 µM in the test with UACC-62 melanoma; over 100 µM in the test with MDA-MB-435; over 87.1 µM with SNB-19 CNS; 97.3 µM with SK-MEL-2 melanoma. Moreover, the TGI was 3.86 µM with SF-539 CNS, over 100 µM in the test on HS 578T breast and over 100 µM in the test on HCC-2998 colon.
Turning to `CC(C)C(=O)CC(c1ccc(Cl)cc1)N1N=C(C(C)C)CC1c1ccc(Cl)cc1` (stereo not drawn), the TGI in the test on SK-MEL-28 melanoma was over 100 µM; in the test with NCI-H226 lung it was over 100 µM; with UACC-62 melanoma it was over 100 µM; in the test with SNB-19 CNS it was over 100 µM; in the test with SK-MEL-2 melanoma, over 92.2 µM; in the test with SF-539 CNS, over 42.7 µM. This compound came in with a TGI with HCC-2998 colon of over 100 µM.
Take `CC(C)CC(=O)NC(C(=O)NC(C(=O)NC(CC(C)C)C(O)CC(=O)NC(C)C(=O)NC(CC(C)C)C(O)CC(=O)O)C(C)C)C(C)C` (stereo not drawn): the TGI in the test with SK-MEL-28 melanoma, in the test with NCI-H226 lung, in the test with UACC-62 melanoma, in the test on MDA-MB-435, in the test on MCF7 breast and in the test with SNB-19 CNS was over 100 µM in each case. Moreover, the TGI in the test on SK-MEL-2 melanoma, in the test on SF-539 CNS and in the test on HCC-2998 colon was over 100 µM in each case.
In the case of `CC(=O)O[C@@H]1C(=O)N(c2ccccc2)[C@@H]1c1cc2ccccc2c2ccccc12`, the TGI in the test on SK-MEL-28 melanoma was over 100 µM; in the test with NCI-H226 lung, over 100 µM; in the test on UACC-62 melanoma it was over 100 µM; with MDA-MB-435, 48.1 µM; in the test on MCF7 breast, over 100 µM; with SNB-19 CNS it was over 100 µM. For the same compound, the TGI in the test with SK-MEL-2 melanoma was 40.6 µM; in the test on SF-539 CNS, 96.9 µM; in the test on HS 578T breast, over 100 µM; in the test on HCC-2998 colon, 61.2 µM.
Regarding `N#CCCN(CCC#N)c1ccc(/C=C(\NC(=O)c2cc([N+](=O)[O-])ccc2Cl)C(=O)Nc2ccccc2)cc1`, the total growth inhibition concentration (TGI) in the test on SK-MEL-28 melanoma, in the test with NCI-H226 lung, in the test on UACC-62 melanoma, in the test with SNB-19 CNS, in the test with SK-MEL-2 melanoma and with SF-539 CNS was over 100 µM throughout.
With `Cn1ccc(C(=O)NCCN(CCNC(=O)c2ccn(C)c(=O)c2O)CCNC(=O)c2ccn(C)c(=O)c2O)c(O)c1=O`, the TGI in the test on SK-MEL-28 melanoma, with NCI-H226 lung, in the test with UACC-62 melanoma, in the test on MDA-MB-435, with MCF7 breast and with SNB-19 CNS was over 100 µM each time. For the same compound, the concentration for total growth inhibition (TGI) in the test on SK-MEL-2 melanoma, in the test on SF-539 CNS, in the test with HS 578T breast and in the test with HCC-2998 colon was over 100 µM each time.
For the compound `CCCn1cc2c(SC)nc(SC)nc2n1`, the TGI with SK-MEL-28 melanoma, in the test on NCI-H226 lung, in the test on SNB-19 CNS, in the test with SK-MEL-2 melanoma, in the test with SF-539 CNS and in the test on HCC-2998 colon was over 100 µM in each case.
Turning to `O=C(O)CCc1nc2ccccc2[nH]1`, the TGI in the test with SK-MEL-28 melanoma, in the test with NCI-H226 lung, in the test on UACC-62 melanoma, in the test with MDA-MB-435, in the test with MCF7 breast and with SNB-19 CNS was over 100 µM in each case. The TGI with SK-MEL-2 melanoma, in the test with SF-539 CNS, in the test with HS 578T breast and with HCC-2998 colon was over 100 µM each time.
For `CCOC(=O)C(Cc1cn(C(C)=O)c2ccccc12)P(=O)(OCC)OCC` (stereo not drawn), the TGI in the test on SK-MEL-28 melanoma, with NCI-H226 lung, in the test on SNB-19 CNS, with SK-MEL-2 melanoma, in the test on HS 578T breast and in the test on HCC-2998 colon was over 100 µM in each case.
With `O=C(O)c1cc(=O)c2c(OCC(O)COc3cccc4oc(C(=O)O)cc(=O)c34)cccc2o1`, the TGI with SK-MEL-28 melanoma, with NCI-H226 lung, in the test with UACC-62 melanoma, in the test with MDA-MB-435, in the test with MCF7 breast and in the test on SNB-19 CNS was over 100 µM throughout. The TGI with SK-MEL-2 melanoma was over 79.2 µM; in the test on SF-539 CNS it was over 100 µM; with HS 578T breast, over 100 µM; in the test with HCC-2998 colon, over 100 µM.
With `Cn1ncc2c(Nc3cccc(Cl)c3)nc(Nc3cccc(Cl)c3)nc21`, the TGI was 41.2 µM in the test with SK-MEL-28 melanoma; over 72.3 µM in the test with NCI-H226 lung; 38.5 µM in the test on UACC-62 melanoma; over 57.6 µM with MDA-MB-435; 32.1 µM with MCF7 breast; over 94 µM with SNB-19 CNS. Besides, the TGI with SK-MEL-2 melanoma is 41.7 µM; in the test on SF-539 CNS it was 52 µM; in the test with HS 578T breast it was 43.9 µM; in the test on HCC-2998 colon, 27.6 µM.
For the compound `COc1ccc(C(O)(c2ccccc2)c2nccc3ccccc23)cc1` (stereo not drawn), the TGI in the test with SK-MEL-28 melanoma, in the test on UACC-62 melanoma, with MDA-MB-435, in the test with MCF7 breast, with SNB-19 CNS and in the test with HS 578T breast was over 100 µM each time.
Consider `c1ccc(C(NC2=NCCO2)c2ccccc2)cc1`, for which the TGI with SK-MEL-28 melanoma, in the test with NCI-H226 lung, with UACC-62 melanoma, in the test on MDA-MB-435, with MCF7 breast and in the test on SNB-19 CNS was over 10 µM each time. Also, the TGI in the test with SK-MEL-2 melanoma, with SF-539 CNS, in the test on HS 578T breast and with HCC-2998 colon was over 10 µM in each case.
For the compound `C/C(=N\NC(=S)N(C)C)c1nc2ncccc2[nH]1`, the TGI with SK-MEL-28 melanoma is over 100 µM; with NCI-H226 lung, 2.05 µM; in the test with UACC-62 melanoma, 2.7 µM; in the test on MDA-MB-435, over 100 µM; in the test on MCF7 breast, over 100 µM; in the test on SNB-19 CNS, 36.1 µM. The TGI with SK-MEL-2 melanoma was over 100 µM; in the test on SF-539 CNS, 5.11 µM; with HS 578T breast, 7.85 µM.
`NNC(=O)CCSc1ccccc1`: the total growth inhibition concentration (TGI) with SK-MEL-28 melanoma, in the test with NCI-H226 lung, with UACC-62 melanoma, in the test with MDA-MB-435, in the test with MCF7 breast and with SNB-19 CNS was over 100 µM each time. In addition, the total growth inhibition concentration (TGI) in the test on SK-MEL-2 melanoma, in the test on SF-539 CNS, in the test on HS 578T breast and with HCC-2998 colon was over 100 µM in each case.
With `OCCCNc1ncnc2[nH]ncc12`, the TGI in the test on SK-MEL-28 melanoma, in the test on NCI-H226 lung, in the test on UACC-62 melanoma, with MDA-MB-435, in the test with MCF7 breast and in the test with SNB-19 CNS was over 100 µM throughout. Besides, the total growth inhibition concentration (TGI) in the test on SK-MEL-2 melanoma, in the test with SF-539 CNS, in the test on HS 578T breast and with HCC-2998 colon was over 100 µM throughout.
